Measured values: patent publication US20230126447A1, “OCULAR DRUG DEPOT FOR COMPLEMENT-MEDIATED DISORDERS” (priority 2020, published 2023)
pIC50: −log10 of the molar value.

Assays:
[1] = In vitro binding to synthetic melanin; settings: synthetic melanin 50 μg/mL, PBS, 37° C., 1 hour
Protocol: (§1) […] The melanin solution was stored in the dark at 37° C. until use.
(§2) Immediately after the assay, samples were added to an equal volume of warm PBS, aliquots (3 μL each) were removed, added to 100 μL of acetonitrile containing carbutamide as internal standard, and then diluted with water (197 μL). These time-zero samples, prepared in PBS only, were also used as calibration standards.
(§3) The assay plates containing samples with and without melanin were incubated in the dark with shaking at 37° C. for 1 hour. Following incubation, the samples were centrifuged for 15 minutes at approximately 4000 rpm at 37° C. to sediment the melanin. Sample supernatant (3 μL) was added to 100 μL of acetonitrile containing the internal standard and then diluted with water (197 μL).
(§4) The column was set to a temperature of 55° C. […]
(§5) Analytes and internal standards were detected using an Applied Biosystems Sciex API-5500 triple quadrupole mass spectrometer with Agilent 1260 Infinity Binary Pump and Apricot Designs ADDA High-Speed Dual Arm Autosampling System. The instrument was equipped with an electrospray ionization source (600° C.) operated in the positive ion mode. Analytes and internal standards for all samples were monitored in the multiple-reaction-monitoring scan mode.

[2] = In vitro binding to melanin from Sepia officinalis; settings: S. officinalis melanin 50 μg/mL, PBS, 37° C., 1 hour
Protocol: as §1, §2, §3, §4, §5

[3] = Stability under melanin binding assay conditions; settings: PBS, 37° C., 1 hour vs time zero
Protocol: as §1, §3
% Stability=Mean Total Conc. (μM) after 1 Hour/Mean Total Conc. (μM) at Time Zero×100%

[4] = QWBA tissue distribution of [14C] Compound 2, Long-Evans rats (PO, IV); format: in vivo
Protocol: (§6) The study was conducted to determine the tissue distribution of [^14C] Compound 2-derived radioactivity following a single oral gavage (PO) administration of 20 mg/kg (100 μCi/kg) of [^14C] […] Compound 2 to a male Long-Evans rat using quantitative whole body autoradiography (QWBA).
(§7) A total of ten male Long-Evans and three male Wistar Hannover rats were administered a single PO dose of [^14C] […] One male Long-Evans rat was administered a single IV dose of [^14C] […] (See Table 3). One animal per group per strain was anesthetized by inhalation of isoflurane gas at designated time points post-dose, followed by blood collection via cardiac puncture and euthanasia by isoflurane overdose. Each carcass was then frozen in a dry ice/hexane bath. Blood and plasma samples were assayed for total radioactivity (TRA) concentrations by liquid scintillation counting (LSC). The tissue concentrations of TRA were determined using validated QWBA techniques. Pharmacokinetic parameters of derived radioactivity in blood, plasma, and tissues were calculated, to the extent possible, using Phoenix© WinNonlin® (Version 6.3, Pharsight Corporation; Mountain View, Calif.).

[5] = QWBA tissue distribution of [14C] Compound 2, Wistar Hannover rats (PO); format: in vivo; settings: 20 mg/kg PO
Protocol: as §6, §7

CFD = CFD (Homo sapiens, UniProt P00746); assay: Inhibitory effect on CFD; format: biochemical
Chain of CFD (P00746 26-253): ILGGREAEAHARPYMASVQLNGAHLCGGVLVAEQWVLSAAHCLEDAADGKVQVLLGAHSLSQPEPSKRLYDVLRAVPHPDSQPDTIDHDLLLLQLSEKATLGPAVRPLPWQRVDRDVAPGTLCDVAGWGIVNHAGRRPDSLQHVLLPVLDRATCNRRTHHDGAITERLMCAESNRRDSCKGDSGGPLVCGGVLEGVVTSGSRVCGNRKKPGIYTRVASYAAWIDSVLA

[6] = male Long-Evans rats, 20 mg/kg PO
[7] = male Wistar Hannover rats, 1 h post-dose
[8] = male Wistar Hannover rats, 24 h post-dose

Question: For `CCN(CC)CCCC(C)Nc1ccnc2cc(Cl)ccc12` (stereo not shown) [Chloroquine, chloroquine, reference compound], which “Bmax (binding capacity)” value [1] is on record?
Answer: 308 nmol/mg melanin

Question: And the “Bmax (binding capacity)” value [2]?
Answer: 280 nmol/mg melanin

Question: And the “Mean Stability” value [3]?
Answer: 87.3%

Question: Which results are given for `CC(=O)c1nn(CC(=O)N2[C@H](C(=O)Nc3nc(Br)ccc3C)C[C@@]3(C)C[C@@H]23)c2ccc(-c3cnc(C)nc3)cc12` [Compound 2, (1R,3S,5R)-2-(2-(3-acetyl-5-(2-methylpyrimidin-5-yl)-1H-indazol-1-yl)acetyl)-N-(6-bromo-3-methylpyridin-2-yl)-5-methyl-2-azabicyclo[3.1.0]hexane-3-carboxamide]?
Answer: Radioactivity in the central nervous system ([4]; male Long-Evans rat, 5 mg/kg IV, […] post-dose): 0.201 μg equiv/g tissue; Tissue:plasma AUC0-t ratio, majority of tissues [4, 6]: greater than 1.00; Tmax, majority of tissues [4, 6]: 1 h; Total plasma radioactivity ([4]; male Long-Evans rats, 20 mg/kg PO, 48 h post-dose): BLQ; Blood concentration of radioactivity ([4]; male Long-Evans rats, 20 mg/kg PO, 72 h post-dose): BLQ; Concentration of radioactivity, eye and uveal tract ([4]; male Long-Evans rats, 20 mg/kg PO, 840 h post-dose): 0.212 μg equiv/g tissue; Radioactivity in the central nervous system ([5]; Wistar Hannover rat, 1 h post-dose): 0.179 μg equiv/g tissue; Tmax, all tissues ([5]; male Wistar Hannover rats): 1 h; Tissue to plasma concentration ratio, brain [5, 7]: 0.04; Tissue to plasma concentration ratio, cecum mucosa [5, 7]: 0.96; Tissue to plasma concentration ratio, kidney medulla [5, 7]: 12.6; Tissue to plasma concentration ratio, stomach wall non-glandular [5, 7]: 1.00; Tissue to plasma ratio, bone marrow [5, 8]: 2.90; Tissue to plasma ratio, stomach wall non-glandular [5, 8]: 100; Total plasma radioactivity ([5]; male Wistar Hannover rats, 168 h post-dose): BLQ

Question: With `CC(=O)c1cn(CC(=O)N2[C@H](C(=O)Nc3nc(Br)ccc3C)C[C@@]3(C)C[C@@H]23)c2c(C)cc(-c3cnc(C)nc3)cc12` [Compound 3, (1R,3S,5R)-2-(2-(3-acetyl-7-methyl-5-(2-methylpyrimidin-5-yl)-1H-indol-1-yl)acetyl)-N-(6-bromo-3-methylpyridin-2-yl)-5-methyl-2-azabicyclo[3.1.0]hexane-3-carboxamide] as the compound, how does the pIC50 (CFD) read?
Answer: 7.49
